Test [1] concerns the target T1, Peroxisome proliferator-activated receptor alpha (Homo sapiens) (UniProt Q07869).
T1 sequence (whole entry): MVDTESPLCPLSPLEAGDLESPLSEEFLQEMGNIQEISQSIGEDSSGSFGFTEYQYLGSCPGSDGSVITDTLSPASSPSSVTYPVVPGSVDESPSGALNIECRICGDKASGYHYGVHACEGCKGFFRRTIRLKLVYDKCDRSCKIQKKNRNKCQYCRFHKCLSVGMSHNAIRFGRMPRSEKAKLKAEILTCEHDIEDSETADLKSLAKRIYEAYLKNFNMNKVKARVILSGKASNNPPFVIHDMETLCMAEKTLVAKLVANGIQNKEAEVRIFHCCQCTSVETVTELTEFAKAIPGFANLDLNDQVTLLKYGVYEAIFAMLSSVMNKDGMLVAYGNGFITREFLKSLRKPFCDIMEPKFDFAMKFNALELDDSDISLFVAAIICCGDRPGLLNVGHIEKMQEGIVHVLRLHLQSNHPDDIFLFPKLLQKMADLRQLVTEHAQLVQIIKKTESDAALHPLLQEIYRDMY
The experiment in a line: Efficacy against human PPARalpha expressed in HepG2 cells relative to Wy-14,643. It is filed as cell-based.

Test [2] deals with T2, Peroxisome proliferator-activated receptor alpha (Homo sapiens, UniProt Q07869).
T2 sequence (Q07869 whole entry): T1 sequence (whole entry)
The experiment in a line: Effective concentration against human PPARalpha expressed in HepG2 cells. The test is classed as cell-based.

For test [3], the target named is T3, Peroxisome proliferator-activated receptor gamma (Homo sapiens, UniProt P37231).
T3 sequence (P37231 whole entry): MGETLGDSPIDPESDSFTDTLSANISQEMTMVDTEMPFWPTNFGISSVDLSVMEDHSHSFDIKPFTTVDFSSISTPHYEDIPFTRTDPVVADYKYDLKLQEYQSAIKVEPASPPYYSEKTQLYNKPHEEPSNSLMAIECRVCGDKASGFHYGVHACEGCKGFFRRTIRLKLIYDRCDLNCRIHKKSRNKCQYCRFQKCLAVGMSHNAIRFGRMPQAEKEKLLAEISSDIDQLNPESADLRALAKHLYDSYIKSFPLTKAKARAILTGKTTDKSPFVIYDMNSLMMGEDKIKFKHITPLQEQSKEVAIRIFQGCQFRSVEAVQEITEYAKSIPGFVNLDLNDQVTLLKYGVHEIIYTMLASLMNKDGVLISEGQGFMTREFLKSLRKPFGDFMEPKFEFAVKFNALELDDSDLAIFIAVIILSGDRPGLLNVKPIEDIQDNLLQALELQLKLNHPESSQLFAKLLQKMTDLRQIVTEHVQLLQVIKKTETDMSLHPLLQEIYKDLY

For test [4], the target named is T3, Peroxisome proliferator-activated receptor gamma. The experiment in a line: Effective concentration against human PPARgamma expressed in HepG2 cells; i.a = inactive at tested concentration. It is filed as cell-based.
For test [5], the target named is T4, Peroxisome proliferator-activated receptor alpha (Mus musculus) (UniProt P23204).
T4 sequence (whole entry): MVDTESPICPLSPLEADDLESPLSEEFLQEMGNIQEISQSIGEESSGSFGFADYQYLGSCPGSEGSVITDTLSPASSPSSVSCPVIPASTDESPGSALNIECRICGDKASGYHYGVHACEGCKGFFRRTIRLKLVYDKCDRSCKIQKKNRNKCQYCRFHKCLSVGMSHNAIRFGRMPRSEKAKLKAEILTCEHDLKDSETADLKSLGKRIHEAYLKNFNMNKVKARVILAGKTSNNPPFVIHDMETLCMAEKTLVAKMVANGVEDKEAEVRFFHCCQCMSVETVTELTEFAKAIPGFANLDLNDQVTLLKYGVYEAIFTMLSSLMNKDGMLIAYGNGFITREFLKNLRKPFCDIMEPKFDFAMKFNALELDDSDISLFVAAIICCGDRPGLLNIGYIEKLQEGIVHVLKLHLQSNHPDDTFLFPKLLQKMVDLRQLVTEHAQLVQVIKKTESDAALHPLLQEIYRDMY
Description: Efficacy against murine PPARalpha relative to Wy-14,643.

Test [6] deals with T5, Peroxisome proliferator-activated receptor alpha (Mus musculus, UniProt P23204).
T5 sequence (P23204 whole entry): T4 sequence (whole entry)
Description: Effective concentration against murine PPARalpha in transactivation assay.

The target in test [7] is T2, Peroxisome proliferator-activated receptor alpha. Description: Effective concentration against human PPARalpha expressed in HepG2 cells; i.a = inactive at tested concentration. The test is classed as cell-based.

As usually defined, the EC50 is the concentration that produces a half-maximal response. With `CC(=O)c1ccc(O[C@@H](Cc2ccccc2)C(=O)O)cc1`, the Efficacy in test [1] is 68.3. The concentration for a half-maximal effect (EC50) stood at 13.5 µM in test [2] and 12.4 µM in test [3].

Take `CCC[C@@H](OCc1ccc(-c2ccc(Cl)cc2)cc1)C(=O)O`: the Efficacy in test [1] stood at 36.6. Besides, the EC50 in test [2] stood at 4 µM; in test [3], 5.4 µM.

For `CCC[C@@H](Oc1ccc2ccccc2c1)C(=O)O`, in test [1], the Efficacy was 10.5. The EC50 in test [2] stood at 3.9 µM; in test [3], 12.5 µM.

In test [1], `O=C(O)[C@H](Cc1ccccc1)Oc1ccc(CO)cc1` yielded an Efficacy of 38.2. The concentration for a half-maximal effect (EC50) turned out to be 28.7 µM in test [2] and 25.7 µM in test [3].

In turn, `COc1ccc(O[C@@H](Cc2ccccc2)C(=O)O)cc1` showed an Efficacy in test [1] of 80.7. Moreover, the EC50 in test [2] is 2.5 µM; in test [3], 20.1 µM.

Molecule `CCC[C@H](Oc1ccc2ccccc2c1)C(=O)O` displayed an Efficacy in test [1] of 95.6. In addition, the values for the EC50 in test [2] and in test [3] were 8.4 µM and 7.2 µM, respectively.

`CCC[C@H](OCc1ccc(-c2ccc(Cl)cc2)cc1)C(=O)O` showed an Efficacy in test [1] of 29.8. In addition, the EC50 in test [2] was determined as 3.9 µM; in test [3], 8.9 µM.

`Cc1cccc(Nc2cc(Cl)nc(SCC(=O)O)n2)c1C` [PIRINIXIC ACID]: the EC50 entry in test [4] is “Not Active”. The Efficacy in test [5] and in test [1] was 100 in each case.

Regarding `O=C(O)[C@H](Cc1ccccc1)Oc1ccc(C(F)(F)F)cc1`, the results for the EC50 in test [6], in test [2] and in test [3] were 0.27 µM, 0.5 µM and 0.9 µM, respectively. In addition, the Efficacy was found to be 107 in test [5] and 80.7 in test [1].

Take `O=C(O)[C@H](Cc1ccccc1)Oc1ccc2ccccc2c1`: the Efficacy in test [1] stood at 130. Further, the EC50 came out at 1.4 µM in test [2] and 1.5 µM in test [3].

For `CCc1ccc(O[C@@H](Cc2ccccc2)C(=O)O)cc1`, the values for the EC50 in test [6], in test [2] and in test [3] were 0.35 µM, 0.7 µM and 3.6 µM, respectively. Moreover, the figures for the Efficacy in test [5] and in test [1] were 127 and 114, respectively.

With `O=C(O)[C@H](Cc1ccccc1)Oc1ccc(-c2cccs2)cc1`, the concentration for a half-maximal effect (EC50) turned out to be 0.15 µM in test [6], 0.9 µM in test [2] and 1.6 µM in test [3]. Further, the figures for the Efficacy in test [5] and in test [1] were 70.7 and 93.2, respectively.

On to `CN(CCOc1ccc(CC2SC(=O)NC2=O)cc1)c1ccccn1` (centres undefined) [ROSIGLITAZONE], for which the concentration for a half-maximal effect (EC50) result in test [7] was “Not Active”.

Molecule `O=C(O)[C@H](Cc1ccccc1)Oc1ccc(-c2ccccc2)cc1` showed an EC50 in test [6] of 0.2 µM. Moreover, the Efficacy in test [5] was 99.3; in test [1] it was 124.

As to `O=C(O)[C@@H](Cc1ccccc1)Oc1ccc(Cl)cc1`, in test [1], the Efficacy amounted to 14.3. The concentration for a half-maximal effect (EC50) in test [2] was determined as 10.9 µM; in test [3], 10.5 µM.

With `O=C(O)[C@H](Cc1ccccc1)Oc1ccc(Cl)cc1`, the EC50 in test [6] turned out to be 1.3 µM; in test [2], 3.9 µM; in test [3], 2.7 µM. The Efficacy in test [5] worked out at 49.1; in test [1] it was 99.4.

With `CC(C)(Oc1ccc(Cl)cc1)C(=O)O` [CLOFIBRIC ACID], the EC50 came out at 42 µM in test [6], 39.6 µM in test [2] and 309 µM in test [3]. The Efficacy is 67.2 in test [5] and 89.7 in test [1].

Source of the values: ChEMBL document CHEMBL1145171, “Synthesis, biological evaluation, and molecular modeling investigation of new chiral fibrates with PPARalpha and PPARgamma agonist activity” (J Med Chem, 2005).
